PubChem BioAssay (NCI)
Several values for one entry are separate records, joined by “and”; a condition that tells them apart may be missing. Equal entries are not always repeated.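 Where inhibition never reached the appropriate level, the endpoint shown equals the highest concentration tested. Otherwise, values were interpolated linearly from a five-concentration, 48-hour dose response in 96-well plates. GI50 = concentration required for 50% inhibition of growth. TGI: total growth inhibition.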

Experiments:
Experiment in all cases: NCI-60 cell line screen, 48 h
HCT-15 colon = test system: HCT-15 colon
ACHN renal = test system: ACHN renal
BT-549 breast = test system: BT-549 breast
SNB-19 CNS = test system: SNB-19 CNS
UO-31 renal = test system: UO-31 renal
NCI-H226 lung = test system: NCI-H226 lung
RPMI-8226 leukemia = test system: RPMI-8226 leukemia
CAKI-1 renal = test system: CAKI-1 renal
CCRF-CEM leukemia = test system: CCRF-CEM leukemia

Structure (SMILES)	GI50 (HCT-15 colon) [µM]	TGI (HCT-15 colon)	GI50 (ACHN renal) [µM]	TGI (ACHN renal)	GI50 (BT-549 breast) [µM]	TGI (BT-549 breast)	GI50 (SNB-19 CNS) [µM]	TGI (SNB-19 CNS)	GI50 (UO-31 renal) [µM]	TGI (UO-31 renal)	GI50 (NCI-H226 lung) [µM]	TGI (NCI-H226 lung)	GI50 (RPMI-8226 leukemia) [µM]	TGI (RPMI-8226 leukemia) [µM]	GI50 (CAKI-1 renal) [µM]	TGI (CAKI-1 renal) [µM]	GI50 (CCRF-CEM leukemia) [µM]	TGI (CCRF-CEM leukemia)
Cc1ccc(C(=O)NC(C)C)cc1-c1ccc(C(=O)NCC2CC2)cc1	> 25	> 25 µM	> 25	> 25 µM	> 25	> 25 µM	> 25	> 25 µM	> 25	> 25 µM	> 25	> 25 µM	> 25	> 25	> 25	> 25	> 25	> 25 µM
CC/C=C\C[C@H](F)C/C=C1/C(=O)C=C[C@@H]1C/C=C\CCCC(=O)O	4.45	13.8 µM	4.99	9.85 µM	6.07	12.5 µM	7.31	25.4 µM	5.78	12.4 µM	8.8	21 µM	1.22	30.8	6.52	22.5	1.05	11.1 µM
COc1ccc(-c2onc(N)c2-c2cc(OC)c3c(c2)OCO3)cc1	0.958	> 100 µM	6.39	> 100 µM	2.64	> 100 µM	8.24	> 100 µM	10.5	> 100 µM	14.2	> 100 µM	3.51	> 86	3.58	> 100	1.81	> 88.6 µM
O=C(Nc1ccncc1)C(=O)c1cn(S(=O)(=O)c2cccc(F)c2)c2ccccc12	2.74	> 100 µM	9.5	> 100 µM	2.29	86.8 µM	49.2	> 100 µM	6.15	> 100 µM	16.9	> 100 µM	1.58	> 100	3.16	> 100	2.58	> 100 µM
Cc1cc2c(cc1Cl)SC1=NN(C)S(=O)N1S2(=O)=O (stereo unspecified)	> 100	> 100 µM	> 100	> 100 µM	> 100	> 100 µM	> 100	> 100 µM	65.9	> 100 µM	> 100	> 100 µM	> 100	> 100	> 100	> 100	> 100	> 100 µM
C[N+]1=C(/C=C/c2ccc(O)c3ncccc23)C(C)(C)c2ccccc21	0.893	15.1 µM	1.98	7.03 µM	2.64	10.3 µM	3.74	14.4 µM	0.58	5.73 µM	3.26	12.9 µM	2.48	10.3	1.11	3.83	3.1	26 µM
COc1cc(C(=O)CBr)c(OC)cc1C		> 100 µM		> 100 µM		> 100 µM		> 100 µM		> 100 µM		> 100 µM		> 100		> 100		> 100 µM
Nc1nc2c(nnn2C2CC(O)C(CO)O2)c(=O)[nH]1 (stereo unspecified)	3.65	> 100 µM	1	> 22.7 µM	4.14	> 59.9 µM	34.1	> 100 µM	3.96	> 100 µM	8.75	> 100 µM	2.65	> 100	2.3	> 100	2.39	> 100 µM
O=C1CCC(N2C(=O)c3ccccc3C2=O)C(=O)N1CO (stereo unspecified)	52.2	> 100 µM	95.2	> 100 µM	52.6	> 100 µM	> 100	> 100 µM	> 100	> 100 µM	> 100	> 100 µM	25.1	78.7	94.7	> 100	30.5	> 100 µM
O=C(O)CCNC1CCCCC1	> 100	> 100 µM	> 100	> 100 µM	> 100	> 100 µM	> 100	> 100 µM	> 100	> 100 µM	> 100	> 100 µM	> 100	> 100	> 100	> 100	> 100	> 100 µM
O=C(CC1C(=O)NN(c2ccc(Br)cc2)C1=O)c1cc(O)ccc1O (stereo unspecified)	8.5	20 µM	14.8	49.4 µM	13.9	> 50 µM	22.7	> 50 µM	41.2	> 50 µM	10.4	36.9 µM	16.5	> 50	14.4	35.7	> 50	> 50 µM
Nc1nccc(-c2c(-c3ccc(F)cc3)ncn2C2CCC(O)CC2)n1 (stereo unspecified)	7.15	> 25 µM	2.83	> 25 µM	11.7	> 25 µM	15.6	> 25 µM	1.79	> 23.2 µM	5.45	24.5 µM	11.7	> 25	7.13	> 25	13.4	> 25 µM
C#CCNC(=O)c1cccc2c1cc(C)n2-c1nc2c(c(NCc3ccccc3)n1)CCCC2	0.0197	0.0474 µM	0.0255	0.11 µM	0.0265	0.0643 µM	0.0362	0.126 µM	0.0242	0.0678 µM	0.017	0.0491 µM	0.0107	0.0537	0.0289	0.176	0.235	0.945 µM
O=C(CCc1nnc2sc(-c3ccc(Cl)cc3Cl)nn12)c1nc2ccccc2[nH]1	0.452	2.77 µM	0.337	1.29 µM	2.14	4.99 µM	1.41	5.8 µM	0.838	2.24 µM	0.663	1.56 µM	0.422	2.63	2.22	5.45	0.265	0.974 µM
CCN(CC)CCCC(C)Nc1c2ccc(Cl)cc2nc2ccc(O)cc12 (stereo unspecified)	2.98	11 µM	1.17	2.81 µM	5.38	18.3 µM	3.37	16.3 µM	1.18	2.65 µM	2.53	8.99 µM	2.4	6.76	2.25	6.1	3.48	28.9 µM
O=C1C(Cl)=C(NCCN2CCOCC2)C(=O)c2ncccc21	1.68	4.17 µM and 3.62 µM	1.45	7.29 µM and 2.91 µM		3.21 µM and 3.03 µM	1.99	3.15 µM and 4.01 µM	1.28	3.03 µM and 2.61 µM		5.14 µM and 3.74 µM	2.72	9.23	1.92	3.72	2.34	2.68 µM and 5.29 µM
Nc1nc(N(Cc2ccccc2)c2ccccc2)c2cn[nH]c2n1	4.24	> 100 µM	5	> 100 µM	3.95	> 100 µM	> 100	> 100 µM	1.8	> 100 µM	6.35	> 100 µM	1.68	> 100	3.67	> 100	4.32	> 100 µM
O=C(O)C(=Cc1ccc(-c2ccccc2)cc1)C(=O)O		> 61 µM		60.1 µM		29.4 µM		37.9 µM		27.6 µM		48.4 µM		20.6		30		> 100 µM
Cc1cc(Cl)cc2c1NC(=O)C2(O)CC(=O)c1ccco1 (stereo unspecified)		> 100 µM		> 100 µM		> 100 µM		> 100 µM		> 100 µM		> 100 µM		> 83.7		> 100		57.3 µM
COC(=O)Nc1nc2ccc(Oc3ccc(NC(=O)Nc4cc(C(F)(F)F)ccc4F)cc3)cc2s1	24.3	> 25 µM	> 25	> 25 µM	> 25	> 25 µM	> 25	> 25 µM	> 25	> 25 µM	> 25	> 25 µM	> 25	> 25	> 25	> 25	> 23.7	> 25 µM
COc1ccc(-c2nc(-c3nc4ccc(Cl)cc4[nH]3)c3ccccn23)cc1	3.89	64.3 µM	1.86	3.75 µM	2.74	6.63 µM	3.6	20.7 µM	1.74	4.11 µM	1.94	4.46 µM	3.55	58.3	2.09	5.03	27.3	> 100 µM
Cc1ccc(C(=O)N(CCCN)C(c2oc3cc(Cl)ccc3c(=O)c2Cc2ccccc2)C(C)C)cc1 (stereo unspecified)	< 0.01	1.57 µM	1.07	2.39 µM	< 0.01	2.03 µM	1.02	2.41 µM	0.67	2.46 µM	1.47	3.23 µM	< 0.01	1.46	0.0492	1.94	< 0.01	1.7 µM
CC[C@@]1(c2ccccc2)C2=C(CC(C)(C)CC2=O)Nc2[nH]ncc21	89	> 100 µM	> 100	> 100 µM	> 100	> 100 µM	> 100	> 100 µM	> 100	> 100 µM	> 100	> 100 µM	> 100	> 100	51.9	> 100	31.8	> 100 µM
Cn1c2ccccc2c2ccc3c(c21)C(=O)c1ccccc1C3=O		50.2 µM		69.2 µM		50.9 µM		> 100 µM		> 100 µM		> 100 µM		36.1		67		13.1 µM
O=S(=O)(NC1=NCCN1C(=S)SN1CCn2c1nsc2=S)c1cccc(Cl)c1	11.9	26.7 µM	13.8	30.6 µM	22.3	68.4 µM	19.1	44.4 µM	14.4	28.6 µM	19	55.7 µM	5.05	> 100	6.24	23.5	3.81	> 100 µM
COc1cc2ncn(-c3cc(OCc4cccs4)c(C(N)=O)s3)c2cc1OC	1.64	> 25 µM	6.39	> 25 µM	4.67	> 25 µM	3.25	> 25 µM	2.77	> 25 µM	7.13	> 25 µM	3.24	> 25	8.49	> 25	0.806	> 25 µM
CCCCCCCC[C@@H](O)CC(=O)N[C@@H](CC(N)=O)C(=O)N[C@@H](CCC(N)=O)C(=O)N[C@@H](CC(=O)c1cc(C)cc(O)c1C(=O)c1c(O)cccc1O)CC(C)C	2.25	23.8 µM	3.09	> 100 µM	0.296	2.25 µM	0.244	> 100 µM	3.9	24.7 µM	0.237	0.746 µM	0.0926	0.883	1.51	> 100	0.398	> 100 µM
O=C1c2cccc([N+](=O)[O-])c2C(=O)N1c1ncn[nH]1		> 100 µM		> 100 µM		90 µM		> 100 µM		> 100 µM		> 100 µM		> 100		> 100		> 100 µM
COc1ccc(N2C(=O)/C(=C/c3ccc(N(CCC#N)CCC#N)cc3C)N=C2c2cc([N+](=O)[O-])ccc2Cl)cc1		59.5 µM		> 63.1 µM		> 100 µM		28.9 µM		> 63.1 µM		42.8 µM		> 63.1		> 36.3		37.7 µM
